Patent US12564641B2 (EISAI R&D MANAGEMENT CO., LTD., priority 2019, dated 2026)
Like-named read-outs stand apart in the source and are kept apart here.

Assays:
[1] = test system: A3 (A431 stably transfected with human mesothelin) cells; experiment: In vitro cytotoxicity analysis (Crystal Violet), A3; format: cell-based
Protocol: Plates were read at 570 nm. Data was analyzed using GraphPad Prism 6.
Fifteen anti-mesothelin antibodies were sub-cloned, scale-up expressed and purified, and conjugated using maleimide-VCP-eribulin as payload at the Cys80 position. All ADCs were purified and characterized using SEC-HPLC for aggregation analysis, HIC-HPLC for DAR analysis, and cell-based assay with A431-A3 (MSLN^hi), A431 (MSLN^lo), and OVCAR3 (MSLN^hi) cell lines. […] Based on the characterization data below, six antibodies (bolded) were selected for humanization.

human NSCLC PDX LC-F-25 = experiment: Human NSCLC PDX model LC-F-25; format: in vivo, mouse
Protocol: Statistical analysis: Statistical analysis was performed for each measurement by a Mann-Whitney non-parametric comparison test. Each treated group was compared with the control group.

human NSCLC PDX LXFA-737 = test system: human NSCLC PDX LXFA-737
Protocol: Animals: Female NMRI nu/nu mice (Crl:NMRI-Foxn1nu), 4 to 6 weeks of age.
Experimental procedure: Animals were monitored until the tumor implants reached the study volume criteria of 50-250 mm^3 (e.g., 80-200 mm^3) in a sufficient number of animals. […] The day of randomization was designated as day 0.
Tumors were measured and mice were weighed twice a week during the experimental period. The first day of dosing was day 1, one day after randomization (day 0).
Statistical analysis: Inhibition of Tumor Growth, Test/Control Value in % (Min. T/C): The test versus control value (T/C in %) was calculated from the ratio of the median residual tumor volume (RTV) values of test versus control groups on day X multiplied by 100. Tumor volume doubling and quadrupling time (Td, Tq) for test and control groups was defined as the time interval (in days) required for a group to reach a median RTV of 200% or 400%.

MSLN-positive cell lines = experiment: In vitro cytotoxicity (IC50, Crystal Violet) on MSLN-positive cell lines (Example 11)
Protocol: Cytotoxicity: Cells were sub-cultured and seeded at 5,000 cells/well in complete growth medium in 96-well tissue culture plates, and incubated at 37° C., 5% CO2 overnight (16 hours). Test reagents were serially diluted 1:3 in 2 mL deep-well dilution plates, starting at 200 nM (10 dilutions total). Diluted samples (100 μL) were added to the cell plates (starting concentration of test samples at 100 nM). Plates were incubated at 37° C. 5% CO2 for an additional 5 days. Medium was then discarded, and plates were washed once with 200 μL DPBS, stained with 50 μL of 0.2% Crystal Violet solution at room temperature for 15 min, and then washed extensively with tap water. Plates were air-dried, and Crystal Violet was dissolved with 200 μL of 1% SDS solution. Plates were read at 570 nm. Data was analyzed for IC50 determination using GraphPad Prism 6.

[2] = eribulin single dose of 0.1 mg/kg i.v.
[3] = eribulin single dose of 3.2 mg/kg i.v.

Compound `C=C1C[C@@H]2CC[C@@]34C[C@H]5O[C@H]6[C@@H](O3)[C@H]3O[C@H](CC[C@@H]3O[C@H]6[C@H]5O4)CC(=O)C[C@@H]3[C@@H](OC)[C@@H](C[C@H](O)CN)O[C@H]3C[C@H]3O[C@@H](CC[C@@H]1O2)C[C@@H](C)C3=C` [Eribulin, eribulin, reference compound] has an EC50 ([1]; A-431, 120 h, Table 18, 5 days, read-out: Cell-Based Cytotoxicity Assay, EC50 (nM) A3) of 1.03 nM, an EC50 ([1]; A-431, Table 19, payloads, read-out: Cell-Based Cytotoxicity Assay EC50 (nM) A3) of 1.03 nM and an EC50 ([1]; A-431, read-out: Cell based Cytotoxicity assay, EC50 (nM) A3-6 hr, treated with ADC for 6 hours then washed off) of 4.08 nM. The EC50 ([1]; A-431, read-out: Cell based Cytotoxicity assay, EC50 (nM) A3-48 hr, treated for 48 hours) was 1.09 nM, the tolerability (human NSCLC PDX LC-F-25; [2]) was “well tolerated” and the tumor growth inhibition (human NSCLC PDX LC-F-25; [2]) was “did not induce statistically significant tumor growth inhibition”. The tolerability / bodyweight (human NSCLC PDX LC-F-25; eribulin single dose of 3.2 mg/kg (mouse MTD) i.v., from 3 to 10 days after administration) was “slight and transient bodyweight loss”, the partial tumor regressions (human NSCLC PDX LC-F-25; [3]) was 6 out of 8 and the tumor growth inhibition (human NSCLC PDX LC-F-25; [3]) was “statistically significant tumor growth inhibition”. The “minimum T/C” value (human NSCLC PDX LXFA-737; eribulin single dose of 0.2 mg/kg, on day 44) was 51.1%, the “Tq (tumor volume quadrupling time)” value (human NSCLC PDX LXFA-737; [3]) was 80.1% and the “minimum T/C” value (human NSCLC PDX LXFA-737; eribulin single dose of 3.2 mg/kg i.v., on day 27) was 4.2%. For the same compound, the tolerability / bodyweight (human NSCLC PDX LXFA-737; mouse, in vivo, iv, 3.2 mg/kg) was “slight and transient bodyweight loss”, the IC50 (MSLN-positive cell lines; Homo sapiens, NCI-H292, read-out: In vitro cell based potency, IC50) was 0.11 nM and the “% Max Killing” value (MSLN-positive cell lines; NCI-H292 cells (MSLN MFI 108.6)) was 85.37%. The IC50 (MSLN-positive cell lines; NCI-H1568, read-out: In vitro cell based potency, IC50) was 0.14 nM, the “% Max Killing” value (MSLN-positive cell lines; NCI-H1568/MSLN cells (MSLN MFI 4474.00)) was 74.39% and the “% Max Killing” value (MSLN-positive cell lines; OVCAR3-A1 cells (MSLN MFI 220.0)) was 99.31%. It also gave an IC50 (MSLN-positive cell lines; read-out: In vitro cell based potency, IC50) of 0.02 nM.
